According to paper PMC9578396, “Intrinsic Antibacterial Activity of Xeruborbactam In Vitro: Assessing Spectrum and Mode of Action” (Antimicrobial Agents and Chemotherapy, 2022):
Values after ≈ are worked out from the molar mass of the structure shown. Like-named read-outs stand apart in the source and are kept apart here.

Key:
[1] = target: T1, PBP2 (Pseudomonas aeruginosa, UniProt Q9X6V3); parameters: method as in PMID 18250190; conditions: value in parentheses; P. aeruginosa PAO1; cited from earlier work
T1 construct: Five microliters of total bacterial membrane preparation was mixed with 5 μL of a test compound; endogenous in cells

[2] = target: T2, PBP1a (Pseudomonas aeruginosa, UniProt Q07806); test: Gel-based Bocillin FL competition PBP binding assay; conditions: P. aeruginosa PAM3034 membranes; Bocillin FL step 0°C for xeruborbactam, 30°C for beta-lactams; read-out: Relative binding IC50, PBP1a
T2 construct: endogenous in cells
Procedure: (§1) Ten milliliters of overnight bacterial culture was inoculated in 1 L of LB medium and grown to an OD600 of 0.7 to 0.9. The cell pellet was washed once with 50 mL of solution containing 100 mM Na-phosphate at pH 7.0 and 100 mM NaCl and resuspended in 10 mL of the same buffer with one tablet of EDTA-free mini-protease inhibitor and 10 mg of lysozyme. Cell suspensions were incubated for 45 min at 37°C, and then 200 μL of DNase I was added along with MgSO4 (to a final concentration of 10 mM), followed by three cycles of freeze-thawing (10 min and 20 min, respectively). Four cycles of sonication at maximum power were performed next, each cycle lasting for 30 s with 1 min on ice between cycles. The cell suspension was centrifuged at 12,000 × g for 10 min at 4°C. The supernatant was collected and centrifuged at 100,000 × g for 45 min at 4°C. The pellet was washed three times with 10 mL of 100 mM Na-phosphate, pH 7.0, by resuspension and subsequent centrifugation at 100,000 × g for 10 min at 4°C. The pellet was finally resuspended in 1.5 mL of 100 mM Na-phosphate, pH 7.0, and passed several times through a Dounce homogenizer (tight pestle). Membrane preparations were aliquoted and kept at −80°C.
(§2) Five microliters of total bacterial membrane preparation was mixed with 5 μL of a test compound at a desired concentration in 100 mM Na-phosphate buffer, pH 7.0. Incubation of bacterial membrane preparations with control beta-lactams was performed for 10 min at 30°C; xeruborbactam was incubated with membrane preparations for 1 h at 30°C. Five microliters of 150 μM Bocillin FL fluorescent probe (Thermo Fisher Scientific) was added, and the reaction mixture was incubated for an additional 10 min at 30°C in the case of beta-lactams or for 20 min on ice (0°C) in the case of xeruborbactam. […] At the end of the incubation step, 15 μL of 2× SDS sample loading buffer was added, and the reaction mixture was incubated for 5 min at 95°C. Twenty-five microliters of the reaction mixture was then loaded on an 8% SDS Tris-glycine gel (Thermo Fisher Scientific). At the end of the run, the gel was briefly rinsed with water and fixed in 10% acetic acid, 40% methanol for 20 min. After an additional wash in water for 30 min, the gel was scanned on a Typhoon Trio+ Imager using a blue laser filter (excitation, 488 nm, and emission, 520 nm). Densitometry of the gel images was performed using ImageQuant software (Molecular Dynamics). IC50 values were calculated with Prism software (GraphPad).

[3] = tested on: strain AB1007 of A. baumannii; test: Minimal bactericidal concentration (MBC), A. baumannii; assay type: cell-based; conditions: Acinetobacter baumannii
[4] = tested on: K. pneumoniae strain KPM1026a; test: Fluorescence microscopy, cellular morphology; assay type: cell-based, Klebsiella pneumoniae; conditions: treated at 1× and 2× MIC, 1 to 2 h, 30°C
Procedure: Single colonies of K. pneumoniae strain KPM1026a, A. baumannii strain ATCC 17978, and P. aeruginosa strain PAM1154 were picked from LB agar plates, inoculated in cation-adjusted Mueller-Hinton broth (CA-MHB), and incubated overnight at 30°C with rolling. Overnight cultures were diluted into fresh CA-MHB and incubated at 30°C, with rolling, until they reached an OD600 of ≈0.12 to 0.15 (equivalent to ~2 × 10^8 CFU/mL). Samples were then treated with compounds and incubated at 30°C, with rolling. After 1 or 2 h of treatment, cells were collected and stained with a dye mix containing FM4-64 (1 μg/mL), DAPI (4′,6-diamidino-2-phenylindole) (2 μg/mL), and SYTOX green (0.5 μM) (Molecular Probes, Invitrogen, or Thermo Fisher Scientific). Cells were transferred onto an agarose pad containing 1.2% agarose and 20% LB medium for microscopy. Microscopy was performed as previously described ([34]).

[5] = target: T3, PBP3 (Escherichia coli, UniProt P0AD68); test: Gel-based Bocillin FL competition PBP binding assay
T3 construct: endogenous in cells; host or cells: Escherichia coli ECM5497 (MG1655), total membrane preparation
Procedure: as §1, with “Membrane preparations were aliquoted and kept at −80°C.” left out
Five microliters of total bacterial membrane preparation was mixed with 5 μL of a test compound at a desired concentration in 100 mM Na-phosphate buffer, pH 7.0. […] IC50 values were calculated with Prism software (GraphPad).

[6] = target: T1, PBP2; test: as above; conditions: P. aeruginosa PAM3034 membranes; Bocillin FL step 0°C for xeruborbactam, 30°C for beta-lactams; read-out: Relative binding IC50, PBP2
Procedure: as §1, §2

[7] = target: T4, PBP3 (Pseudomonas aeruginosa, UniProt G3XD46); test: as above; conditions: P. aeruginosa PAM3034 membranes; Bocillin FL step 0°C for xeruborbactam, 30°C for beta-lactams; read-out: Relative binding IC50, PBP3
T4 construct: endogenous in cells
Procedure: as §1, §2

T1 sequence (Q9X6V3 1-646): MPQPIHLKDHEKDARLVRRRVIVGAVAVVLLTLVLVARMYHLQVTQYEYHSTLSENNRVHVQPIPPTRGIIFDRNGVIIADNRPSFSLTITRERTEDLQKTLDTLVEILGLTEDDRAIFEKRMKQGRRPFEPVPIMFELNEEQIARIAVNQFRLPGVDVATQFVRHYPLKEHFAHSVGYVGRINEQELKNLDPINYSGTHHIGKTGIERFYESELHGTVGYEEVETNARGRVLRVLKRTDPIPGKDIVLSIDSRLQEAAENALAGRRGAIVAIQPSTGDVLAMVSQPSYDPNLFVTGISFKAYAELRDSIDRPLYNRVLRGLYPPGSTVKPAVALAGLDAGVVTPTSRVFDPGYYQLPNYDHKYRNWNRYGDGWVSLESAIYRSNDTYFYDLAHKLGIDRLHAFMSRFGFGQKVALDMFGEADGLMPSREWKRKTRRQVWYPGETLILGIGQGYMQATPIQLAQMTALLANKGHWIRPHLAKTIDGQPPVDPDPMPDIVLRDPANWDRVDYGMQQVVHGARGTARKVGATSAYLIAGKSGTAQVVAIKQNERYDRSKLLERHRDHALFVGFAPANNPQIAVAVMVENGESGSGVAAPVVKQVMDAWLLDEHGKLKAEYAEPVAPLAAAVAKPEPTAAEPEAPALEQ
T2 sequence (Q07806 whole entry): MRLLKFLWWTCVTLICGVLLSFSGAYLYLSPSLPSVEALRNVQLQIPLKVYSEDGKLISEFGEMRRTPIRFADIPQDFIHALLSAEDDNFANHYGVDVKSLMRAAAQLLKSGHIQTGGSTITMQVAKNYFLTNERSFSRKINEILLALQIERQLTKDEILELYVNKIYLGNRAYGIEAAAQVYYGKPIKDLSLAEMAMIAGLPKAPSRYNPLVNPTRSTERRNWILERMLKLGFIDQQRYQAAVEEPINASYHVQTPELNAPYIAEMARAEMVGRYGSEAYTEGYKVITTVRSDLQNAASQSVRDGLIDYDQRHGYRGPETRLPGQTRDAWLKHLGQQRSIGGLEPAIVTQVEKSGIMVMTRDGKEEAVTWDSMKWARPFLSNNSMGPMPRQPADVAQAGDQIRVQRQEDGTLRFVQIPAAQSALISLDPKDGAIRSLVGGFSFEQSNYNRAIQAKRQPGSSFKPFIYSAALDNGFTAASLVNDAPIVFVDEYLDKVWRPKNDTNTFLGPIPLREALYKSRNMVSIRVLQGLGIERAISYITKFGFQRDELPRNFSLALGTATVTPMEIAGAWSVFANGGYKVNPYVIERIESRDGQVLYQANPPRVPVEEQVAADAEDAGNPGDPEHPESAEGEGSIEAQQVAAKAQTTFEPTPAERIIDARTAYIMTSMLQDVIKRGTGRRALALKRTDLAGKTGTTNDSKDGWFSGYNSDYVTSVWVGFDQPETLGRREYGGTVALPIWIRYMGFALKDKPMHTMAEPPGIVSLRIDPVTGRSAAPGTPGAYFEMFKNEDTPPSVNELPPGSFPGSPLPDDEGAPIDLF
T4 sequence (G3XD46 whole entry): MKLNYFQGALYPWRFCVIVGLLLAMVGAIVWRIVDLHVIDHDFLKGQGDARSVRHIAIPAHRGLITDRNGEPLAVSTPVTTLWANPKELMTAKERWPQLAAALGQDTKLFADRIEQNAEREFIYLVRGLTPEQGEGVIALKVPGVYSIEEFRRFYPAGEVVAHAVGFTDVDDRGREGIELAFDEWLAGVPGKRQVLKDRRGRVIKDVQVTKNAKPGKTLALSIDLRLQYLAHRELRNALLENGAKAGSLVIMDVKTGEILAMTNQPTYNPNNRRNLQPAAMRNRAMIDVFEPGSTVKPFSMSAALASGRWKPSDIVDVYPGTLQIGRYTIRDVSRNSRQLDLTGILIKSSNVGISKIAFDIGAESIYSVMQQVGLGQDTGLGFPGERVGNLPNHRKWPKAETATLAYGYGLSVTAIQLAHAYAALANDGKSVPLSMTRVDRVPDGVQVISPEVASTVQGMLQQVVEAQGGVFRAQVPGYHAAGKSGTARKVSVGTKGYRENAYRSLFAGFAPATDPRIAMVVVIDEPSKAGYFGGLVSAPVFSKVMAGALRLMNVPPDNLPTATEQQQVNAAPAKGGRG
T3 sequence (P0AD68 whole entry): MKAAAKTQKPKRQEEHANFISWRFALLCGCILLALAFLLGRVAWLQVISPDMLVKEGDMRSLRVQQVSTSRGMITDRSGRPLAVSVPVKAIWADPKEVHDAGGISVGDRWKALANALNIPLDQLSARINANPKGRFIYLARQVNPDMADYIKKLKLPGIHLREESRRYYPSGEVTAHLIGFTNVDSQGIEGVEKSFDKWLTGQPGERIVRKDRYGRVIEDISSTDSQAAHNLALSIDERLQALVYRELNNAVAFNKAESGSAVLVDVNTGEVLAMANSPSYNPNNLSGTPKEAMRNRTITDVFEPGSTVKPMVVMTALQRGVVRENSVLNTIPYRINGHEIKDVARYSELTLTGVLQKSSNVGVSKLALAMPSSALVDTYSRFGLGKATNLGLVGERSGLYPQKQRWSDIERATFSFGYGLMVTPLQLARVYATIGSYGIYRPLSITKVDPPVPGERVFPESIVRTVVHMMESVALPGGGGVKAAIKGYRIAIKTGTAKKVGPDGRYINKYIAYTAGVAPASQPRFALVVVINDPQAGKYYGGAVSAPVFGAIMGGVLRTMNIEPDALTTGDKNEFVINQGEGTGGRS

Row | Compound | IC50 [1] | IC50 [2] | MBC [3] | cellular morphology [4] | IC50 [5] | IC50 [6] | IC50 [7]
1 | C[C@@H](O)[C@H]1C(=O)N2C(C(=O)O)=C(S[C@@H]3CN[C@H](C(=O)N(C)C)C3)[C@H](C)[C@H]12 [Meropenem] | 0.05 µM | 0.17 µM | – | – | – | – | –
2 | O=C(O)c1c(F)ccc2c1OB(O)[C@@H]1C[C@H]21 [Xeruborbactam] | – | – | 16 µg/mL (≈ 72.1 µM) | increased cell length relative to that of the untreated controls and bulges that developed at midcell | 73 ± 10 µM | 370 ± 120 µM | 510 ± 120 µM
